Assay results reported in US7192906B2, “Substituted pyrazole derivatives, production process thereof, and herbicide compositions containing the derivatives” (SDS Biotech K.K., priority 2001, dated 2007).

Experiments:
Format in all cases: in vivo
[1] = tested on: soybean (Glycine max); assay: Test Example 2 upland soil treatment, crop phytotoxicity; settings: Table 5, upland soil treatment, index 0-5
Outline: (§1)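 Visual 0–5 grading of herbicidal effect or phytotoxicity, made 21 days after a single pre-emergence soil-surface application at 1 kg a.i./ha.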

[2] = tested on: wheat (Triticum aestivum); assay: as above; settings: Table 5, upland soil treatment, index 0-5
Outline: as §1

[3] = tested on: Rice (Oryza sativa); assay: Test Example 3 paddy field treatment, crop phytotoxicity; settings: active ingredient 1 kg per hectare, index 0-5; for Herbicidal activity OS (phytotoxicity to rice): paddy field treatment, transplanted rice Koshihikari, wettable powder, 21st day after the dropping; for Herbicidal activity (phytotoxicity) OS: Table 6, paddy field treatment, transplanted rice, 21st day after dropping
Outline: (§2)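 Weed seeds sown in puddled paddy soil under 4 cm water, with two-leaf Koshihikari rice transplanted; 10 days later a wettable powder was applied to the water surface at 1 kg active ingredient/ha. Scored 21 days after application on a 0–5 scale (0 = <10%, 5 = ≥90% herbicidal effect or phytotoxicity).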

[4] = tested on: soybean (Glycine max); assay: Test Example 1 upland field foliage treatment, crop phytotoxicity; settings: Table 4, upland field foliage treatment, index 0-5
Outline: (§3)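 Scores are visual 0–5 ratings of herbicidal effect or crop injury (0: under 10%; 5: 90% or more) taken 21 days after treatment. Plants grew from seed in upland soil for 14 days, then foliage received the compound as a water-diluted wettable powder at 1 kg/ha active ingredient.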

[5] = tested on: wheat (Triticum aestivum); assay: as above; settings: Table 4, upland field foliage treatment, index 0-5
Outline: as §3

[6] = tested on: Digitaria adscendens; assay: Test Example 2 upland soil treatment; settings: Table 5, upland soil treatment, index 0-5
Outline: as §1

[7] = tested on: Setaria viridis; assay: Test Example 2 upland soil treatment; settings: Table 5, upland soil treatment, index 0-5
Outline: as §1

[8] = tested on: Stellaria media; assay: Test Example 2 upland soil treatment; settings: Table 5, upland soil treatment, index 0-5
Outline: as §1

[9] = tested on: Chenopodium album; assay: Test Example 2 upland soil treatment; settings: Table 5, upland soil treatment, index 0-5
Outline: as §1

[10] = tested on: Echinochloa crusgalli; assay: Test Example 3 paddy field treatment; settings: active ingredient 1 kg per hectare, index 0-5
Outline: as §2

[11] = tested on: Scirpus juncoides; assay: Test Example 3 paddy field treatment; settings: active ingredient 1 kg per hectare, index 0-5
Outline: as §2

[12] = tested on: Monochoria vaginalis; assay: Test Example 3 paddy field treatment; settings: active ingredient 1 kg per hectare, index 0-5
Outline: as §2

[13] = tested on: Ammannia multiflora; assay: Test Example 3 paddy field treatment; settings: active ingredient 1 kg per hectare, index 0-5
Outline: as §2

[14] = tested on: Digitaria adscendens; assay: Test Example 1 upland field foliage treatment; settings: Table 4, upland field foliage treatment, index 0-5
Outline: as §3

[15] = tested on: Setaria viridis; assay: Test Example 1 upland field foliage treatment; settings: Table 4, upland field foliage treatment, index 0-5
Outline: as §3

[16] = tested on: Stellaria media; assay: Test Example 1 upland field foliage treatment; settings: Table 4, upland field foliage treatment, index 0-5
Outline: as §3

[17] = tested on: Chenopodium album; assay: Test Example 1 upland field foliage treatment; settings: Table 4, upland field foliage treatment, index 0-5
Outline: as §3

[18] = paddy field treatment, wettable powder, 21st day after the dropping
[19] = Table 6, paddy field treatment, 21st day after dropping

SMILES	Herbicidal activity (phytotoxicity) GM: Soybean (Glycine max) [1]	Herbicidal activity (phytotoxicity) TA: Wheat (Triticum aestivum) [2]	Herbicidal activity OS (phytotoxicity to rice) [3]	Herbicidal activity (phytotoxicity) GM: Soybean (Glycine max) [4]	Herbicidal activity (phytotoxicity) TA: Wheat (Triticum aestivum) [5]	Herbicidal activity DA: Digitaria adscendens [6]	Herbicidal activity SV: Setaria viridis [7]	Herbicidal activity SM: Stellaria media [8]	Herbicidal activity CA: Chenopodium album [9]	Herbicidal activity EC [10, 18]	Herbicidal activity SJ [11, 18]	Herbicidal activity MV [12, 18]	Herbicidal activity AM [13, 18]	Herbicidal activity DA: Digitaria adscendens [14]	Herbicidal activity SV: Setaria viridis [15]	Herbicidal activity SM: Stellaria media [16]	Herbicidal activity CA: Chenopodium album [17]	Herbicidal activity (phytotoxicity) OS [3]	Herbicidal activity EC [10, 19]	Herbicidal activity SJ [11, 19]	further results
CNC(=O)C(Cn1cc(C)c(-c2ccc(C)cc2)n1)=NOC [Compound 37]	0 (herbicidal effect of not less than 0% and less than 10%, or phytotoxicity of 0% or more and less than 10%)	0 (herbicidal effect of not less than 0% and less than 10%, or phytotoxicity of 0% or more and less than 10%)	1 (herbicidal effect of not less than 10% and less than 30%, or phytotoxicity of 10% or more and less than 30%)	0 (herbicidal effect of not less than 0% and less than 10%, or phytotoxicity of 0% or more and less than 10%)	0 (herbicidal effect of not less than 0% and less than 10%, or phytotoxicity of 0% or more and less than 10%)	5 (herbicidal effect of not less than 90%, or phytotoxicity of 90% or more)	5 (herbicidal effect of not less than 90%, or phytotoxicity of 90% or more)	5 (herbicidal effect of not less than 90%, or phytotoxicity of 90% or more)	5 (herbicidal effect of not less than 90%, or phytotoxicity of 90% or more)	5 (herbicidal effect of not less than 90%, or phytotoxicity of 90% or more)	5 (herbicidal effect of not less than 90%, or phytotoxicity of 90% or more)	5 (herbicidal effect of not less than 90%, or phytotoxicity of 90% or more)	5 (herbicidal effect of not less than 90%, or phytotoxicity of 90% or more)	5 (herbicidal effect of not less than 90%, or phytotoxicity of 90% or more)	5 (herbicidal effect of not less than 90%, or phytotoxicity of 90% or more)	5 (herbicidal effect of not less than 90%, or phytotoxicity of 90% or more)	5 (herbicidal effect of not less than 90%, or phytotoxicity of 90% or more)				
CON=C(Cn1cc(C)c(-c2ccccc2)n1)C(=O)NCC#N [Compound 33]	0 (herbicidal effect of not less than 0% and less than 10%, or phytotoxicity of 0% or more and less than 10%)	0 (herbicidal effect of not less than 0% and less than 10%, or phytotoxicity of 0% or more and less than 10%)	0 (herbicidal effect of not less than 0% and less than 10%, or phytotoxicity of 0% or more and less than 10%)	0 (herbicidal effect of not less than 0% and less than 10%, or phytotoxicity of 0% or more and less than 10%)	0 (herbicidal effect of not less than 0% and less than 10%, or phytotoxicity of 0% or more and less than 10%)	5 (herbicidal effect of not less than 90%, or phytotoxicity of 90% or more)	4 (herbicidal effect of not less than 70% and less than 90%, or phytotoxicity of 70% or more and less than 90%)	5 (herbicidal effect of not less than 90%, or phytotoxicity of 90% or more)	5 (herbicidal effect of not less than 90%, or phytotoxicity of 90% or more)	5 (herbicidal effect of not less than 90%, or phytotoxicity of 90% or more)	4 (herbicidal effect of not less than 70% and less than 90%, or phytotoxicity of 70% or more and less than 90%)	5 (herbicidal effect of not less than 90%, or phytotoxicity of 90% or more)	5 (herbicidal effect of not less than 90%, or phytotoxicity of 90% or more)	5 (herbicidal effect of not less than 90%, or phytotoxicity of 90% or more)	4 (herbicidal effect of not less than 70% and less than 90%, or phytotoxicity of 70% or more and less than 90%)	4 (herbicidal effect of not less than 70% and less than 90%, or phytotoxicity of 70% or more and less than 90%)	4 (herbicidal effect of not less than 70% and less than 90%, or phytotoxicity of 70% or more and less than 90%)				
CNC(=O)C(Cn1cc(C)c(-c2cc(C(F)(F)F)ccc2F)n1)=NOC [Compound 86]	1 (herbicidal effect of not less than 10% and less than 30%, or phytotoxicity of 10% or more and less than 30%)	0 (herbicidal effect of not less than 0% and less than 10%, or phytotoxicity of 0% or more and less than 10%)		0 (herbicidal effect of not less than 0% and less than 10%, or phytotoxicity of 0% or more and less than 10%)	0 (herbicidal effect of not less than 0% and less than 10%, or phytotoxicity of 0% or more and less than 10%)	5 (herbicidal effect of not less than 90%, or phytotoxicity of 90% or more)	4 (herbicidal effect of not less than 70% and less than 90%, or phytotoxicity of 70% or more and less than 90%)	5 (herbicidal effect of not less than 90%, or phytotoxicity of 90% or more)	5 (herbicidal effect of not less than 90%, or phytotoxicity of 90% or more)					5 (herbicidal effect of not less than 90%, or phytotoxicity of 90% or more)	3 (herbicidal effect of not less than 50% and less than 70%, or phytotoxicity of 50% or more and less than 70%)	4 (herbicidal effect of not less than 70% and less than 90%, or phytotoxicity of 70% or more and less than 90%)	4 (herbicidal effect of not less than 70% and less than 90%, or phytotoxicity of 70% or more and less than 90%)	0 (herbicidal effect of not less than 0% and less than 10%, or phytotoxicity of 0% or more and less than 10%)	5 (herbicidal effect of not less than 90%, or phytotoxicity of 90% or more)	4 (herbicidal effect of not less than 70% and less than 90%, or phytotoxicity of 70% or more and less than 90%)	Herbicidal activity MV [12, 19]: 5 (herbicidal effect of not less than 90%, or phytotoxicity of 90% or more); Herbicidal activity AM [13, 19]: 5 (herbicidal effect of not less than 90%, or phytotoxicity of 90% or more)
CNC(=O)C(Cn1cc(C)c(-c2ccc(F)cc2F)n1)=NOC [Compound 56]	1 (herbicidal effect of not less than 10% and less than 30%, or phytotoxicity of 10% or more and less than 30%)	0 (herbicidal effect of not less than 0% and less than 10%, or phytotoxicity of 0% or more and less than 10%)		0 (herbicidal effect of not less than 0% and less than 10%, or phytotoxicity of 0% or more and less than 10%)	0 (herbicidal effect of not less than 0% and less than 10%, or phytotoxicity of 0% or more and less than 10%)	5 (herbicidal effect of not less than 90%, or phytotoxicity of 90% or more)	5 (herbicidal effect of not less than 90%, or phytotoxicity of 90% or more)	5 (herbicidal effect of not less than 90%, or phytotoxicity of 90% or more)	5 (herbicidal effect of not less than 90%, or phytotoxicity of 90% or more)					5 (herbicidal effect of not less than 90%, or phytotoxicity of 90% or more)	5 (herbicidal effect of not less than 90%, or phytotoxicity of 90% or more)	5 (herbicidal effect of not less than 90%, or phytotoxicity of 90% or more)	5 (herbicidal effect of not less than 90%, or phytotoxicity of 90% or more)	0 (herbicidal effect of not less than 0% and less than 10%, or phytotoxicity of 0% or more and less than 10%)	5 (herbicidal effect of not less than 90%, or phytotoxicity of 90% or more)	5 (herbicidal effect of not less than 90%, or phytotoxicity of 90% or more)	Herbicidal activity MV [12, 19]: 5 (herbicidal effect of not less than 90%, or phytotoxicity of 90% or more); Herbicidal activity AM [13, 19]: 5 (herbicidal effect of not less than 90%, or phytotoxicity of 90% or more)
